The target of one data set is T1, telomerase (Homo sapiens, UniProt O14746).
T1 construct: A549 cells (human epithelial cell lung carcinoma, ATCC, Manassas, VA) were lysed in; host or cells: A549 cell lysate (CHAPS extract, 5 µg total protein)
As to the kind of experiment: TRAP / RTQ-TRAP telomerase activity assay in A549 cell-free lysates.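 Further: telomerase activity measured in cell-free extracts of human A549 epithelial lung carcinoma cells, tested across a range of inhibitor concentrations.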 The settings on record: telomerase inhibition, mean ± SEM. In kind it is biochemical.

T1 sequence (O14746 whole entry): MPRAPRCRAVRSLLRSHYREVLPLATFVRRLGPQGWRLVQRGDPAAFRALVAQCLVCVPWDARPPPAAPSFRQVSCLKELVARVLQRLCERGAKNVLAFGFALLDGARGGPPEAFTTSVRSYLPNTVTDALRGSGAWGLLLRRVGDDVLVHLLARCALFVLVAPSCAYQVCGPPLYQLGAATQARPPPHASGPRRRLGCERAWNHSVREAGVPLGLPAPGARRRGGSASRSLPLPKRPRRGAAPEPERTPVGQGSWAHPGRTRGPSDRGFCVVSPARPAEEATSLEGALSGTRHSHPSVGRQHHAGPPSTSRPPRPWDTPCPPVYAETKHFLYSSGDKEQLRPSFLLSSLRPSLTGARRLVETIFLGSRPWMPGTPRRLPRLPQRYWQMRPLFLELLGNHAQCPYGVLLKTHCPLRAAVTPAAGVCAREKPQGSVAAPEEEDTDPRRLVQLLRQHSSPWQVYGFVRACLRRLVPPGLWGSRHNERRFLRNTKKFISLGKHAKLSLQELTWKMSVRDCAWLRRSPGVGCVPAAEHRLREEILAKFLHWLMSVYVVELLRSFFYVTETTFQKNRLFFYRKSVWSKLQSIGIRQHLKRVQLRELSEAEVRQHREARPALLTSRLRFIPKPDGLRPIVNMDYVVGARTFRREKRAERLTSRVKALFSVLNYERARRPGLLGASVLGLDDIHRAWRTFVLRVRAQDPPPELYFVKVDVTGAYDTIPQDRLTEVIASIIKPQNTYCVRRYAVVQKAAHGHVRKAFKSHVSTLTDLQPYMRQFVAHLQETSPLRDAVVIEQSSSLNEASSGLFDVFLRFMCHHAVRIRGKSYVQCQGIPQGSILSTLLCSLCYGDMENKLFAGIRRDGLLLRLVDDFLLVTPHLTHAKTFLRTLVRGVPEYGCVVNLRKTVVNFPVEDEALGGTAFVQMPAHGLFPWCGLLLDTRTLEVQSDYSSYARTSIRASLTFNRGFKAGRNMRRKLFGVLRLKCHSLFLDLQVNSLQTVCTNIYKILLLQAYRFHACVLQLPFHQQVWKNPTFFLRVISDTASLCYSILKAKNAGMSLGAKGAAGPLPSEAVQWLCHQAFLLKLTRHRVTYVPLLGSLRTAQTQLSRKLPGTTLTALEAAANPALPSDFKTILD
T1 sequence (O60832 whole entry partner): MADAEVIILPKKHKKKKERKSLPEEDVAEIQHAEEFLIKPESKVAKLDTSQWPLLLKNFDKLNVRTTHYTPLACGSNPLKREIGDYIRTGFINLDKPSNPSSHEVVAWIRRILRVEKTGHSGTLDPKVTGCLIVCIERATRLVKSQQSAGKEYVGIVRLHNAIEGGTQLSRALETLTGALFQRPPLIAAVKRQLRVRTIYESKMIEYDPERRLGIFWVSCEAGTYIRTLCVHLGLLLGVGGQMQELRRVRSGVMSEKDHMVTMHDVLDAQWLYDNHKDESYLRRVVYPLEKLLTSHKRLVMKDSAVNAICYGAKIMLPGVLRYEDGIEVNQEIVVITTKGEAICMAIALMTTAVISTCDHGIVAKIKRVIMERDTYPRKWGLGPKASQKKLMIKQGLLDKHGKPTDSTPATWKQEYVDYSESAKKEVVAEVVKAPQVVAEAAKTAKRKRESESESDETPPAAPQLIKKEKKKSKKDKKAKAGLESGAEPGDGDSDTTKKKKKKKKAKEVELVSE
T1 sequence (Q9NX24 whole entry partner): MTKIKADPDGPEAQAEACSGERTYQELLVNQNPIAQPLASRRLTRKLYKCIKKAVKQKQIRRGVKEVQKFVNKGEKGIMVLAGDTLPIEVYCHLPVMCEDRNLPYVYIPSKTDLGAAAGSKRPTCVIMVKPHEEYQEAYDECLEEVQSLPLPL
T1 sequence (Q9NPE3 whole entry partner): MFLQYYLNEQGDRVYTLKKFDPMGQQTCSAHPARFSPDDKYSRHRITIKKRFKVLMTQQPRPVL
T1 sequence (Q9NY12 whole entry partner): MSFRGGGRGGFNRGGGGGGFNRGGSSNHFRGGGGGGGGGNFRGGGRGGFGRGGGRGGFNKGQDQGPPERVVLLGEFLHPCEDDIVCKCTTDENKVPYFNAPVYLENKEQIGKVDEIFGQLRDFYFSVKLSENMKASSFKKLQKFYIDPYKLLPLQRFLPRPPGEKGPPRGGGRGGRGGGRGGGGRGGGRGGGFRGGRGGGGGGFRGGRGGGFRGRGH
T1 sequence (Q9BUR4 whole entry partner): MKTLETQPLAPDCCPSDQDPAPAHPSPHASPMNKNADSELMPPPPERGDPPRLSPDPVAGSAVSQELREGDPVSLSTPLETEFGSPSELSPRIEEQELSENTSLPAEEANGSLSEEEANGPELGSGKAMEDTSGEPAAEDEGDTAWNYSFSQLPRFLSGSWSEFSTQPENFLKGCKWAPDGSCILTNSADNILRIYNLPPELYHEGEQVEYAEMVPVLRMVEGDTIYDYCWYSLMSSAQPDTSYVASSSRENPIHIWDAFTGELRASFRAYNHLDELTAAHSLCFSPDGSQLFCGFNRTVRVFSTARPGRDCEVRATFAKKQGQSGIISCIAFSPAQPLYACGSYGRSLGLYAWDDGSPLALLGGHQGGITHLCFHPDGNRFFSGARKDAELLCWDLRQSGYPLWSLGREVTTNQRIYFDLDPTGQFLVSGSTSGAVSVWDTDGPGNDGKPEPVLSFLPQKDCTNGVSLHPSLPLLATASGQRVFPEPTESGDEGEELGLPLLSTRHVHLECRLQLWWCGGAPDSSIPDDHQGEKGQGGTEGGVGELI
Method for telomerase: In cell-free investigations, human A549 (epithelial cell lung carcinoma) lysates were utilized to evaluate telomerase with various inhibitor concentrations. […] The Telomeric Repeat Amplification Protocol (TRAP) [61] was used to evaluate the activity of telomerase, with some changes that we have previously described [62, 63]. A549 cells (human epithelial cell lung carcinoma, ATCC, Manassas, VA) were lysed in (10 mM) Tris-HCl, pH 7.5, (1 mM) EGTA, (1 mM) MgCl2, (5 mM) 2-mercaptoethanol, (0.1 mM) PMSF, (0.5%) CHAPS, and (10%) glycerol (Sigma-Aldrich, St. Louis, MO, USA) and centrifugation. The supernatants were kept at -80 °C. The BCA-1 Protein Assay Kit was used to assess the protein concentration in cell extracts (Sigma-Aldrich, St. Louis, MO, USA). […] To inactivate telomerase, the cells were elongated for 30 min at 37 °C and 10 min at 96 °C. Copy CX-primer was added to the elongation mixture along with 0.1 μL ([NT]) and 2.5 units Taq-polymerase, followed by the following PCR: 94 °C for 5 min; 30 cycles of 94 °C for 30 s, 50 °C for 30 s, and 72 °C for 40 s, and 72 °C for 5 min. […] The gels were stained with the SYBR Green I (Invitrogen, Grand Island, NY, USA), then photographed under the UV light in ChemiDocTM XRS imaging system and analyzed with GelAnalyzer 2010. Analysis was carried out using SPSS 25 software, a 2-way ANOVA, and a student's t-test (IBM SPSS Statistics, Armonk, NY, USA). The mean ± SEM is used to express the findings. The significance level was set at p ≤ 0.05. […] According to Sebaugh J.L., et al.'s guidelines, the values were assessed using the Prism 6 software (GraphPad, San Diego, CA, USA) [65].

Usually IC50 stands for the point on the concentration scale where inhibition reaches its midpoint. Higher therefore signals a need for much substance. What is called IC90 is the point of the concentration-response curve where the effect stands at 90%. Higher therefore signals weaker potency. What is called melting point is the temperature, or range, at which the solid turns liquid. `N#C/C(=C\c1ccc(C(F)(F)F)cc1)C(=O)Nc1sc2c(c1C#N)CCC2` [Compound 25a, (2E/2Z)-2-Cyano-N-{3-cyano-4H,5H,6H-cyclopenta[b]thiophen-2-yl}-3-[4-(trifluoromethyl)phenyl]prop-2-enamide]: the melting point was in the range of 354 to 356 °C. On telomerase, this compound gave an IC50 of 20.9 ± 0.7 µM and an IC90 of 109 ± 3.2 µM.
On the same counts, the results for `N#C/C(=C\c1ccc(C(F)(F)F)cc1)C(=O)Nc1sc2c(c1C#N)CCCC2` [Compound 25b, (2E)-2-Cyano-N-(3-cyano-4,5,6,7-tetrahydro-1-benzothiophen-2-yl)-3-[4-(trifluoromethyl)phenyl]prop-2-enamide] are 225 to 227 °C, 25.8 ± 1 µM and 140 ± 4.7 µM.
At telomerase, `COc1ccc(/C=C(\C#N)C(=O)Nc2sc3c(c2C#N)CCC3)cc1OC` [Compound 26a, (2E)-2-Cyano-N-{3-cyano-4H,5H,6H-cyclopenta[b]thiophen-2-yl}-3-(3,4-dimethoxyphenyl)prop-2-enamide] gave a concentration for half-maximal inhibition (IC50) of 13.5 ± 0.6 µM and an IC90 of 154 µM.
On the same counts, the results for `COc1ccc(/C=C(\C#N)C(=O)Nc2sc3c(c2C#N)CCCC3)cc1OC` [Compound 26b, (2E)-2-Cyano-N-(3-cyano-4,5,6,7-tetrahydro-1-benzothiophen-2-yl)-3-(3,4-dimethoxyphenyl)prop-2-enamide] are 53.6 ± 1.8 µM and 751 µM.
Consider `N#C/C(=C\c1ccc(Cl)c(Cl)c1)C(=O)Nc1sc2c(c1C#N)CCC2` [Compound 27a, (2E/2Z)-2-Cyano-N-{3-cyano-4H,5H,6H-cyclopenta[b]thiophen-2-yl}-3-(3,4-dichlorophenyl)prop-2-enamide], for which the melting point fell in the range of 329 to 331 °C. On telomerase, this compound showed an IC50 of 6.5 ± 0.3 µM and a 90% effect concentration (IC90) of 164 µM.
For `N#C/C(=C\c1ccc(Cl)c(Cl)c1)C(=O)Nc1sc2c(c1C#N)CCCC2` [Compound 27b, (2E/2Z)-2-Cyano-N-(3-cyano-4,5,6,7-tetrahydro-1-benzothiophen-2-yl)-3-(3,4-dichlorophenyl)prop-2-enamide] the same measures were 376 to 378 °C, 12.5 ± 0.6 µM and 138 µM.
For `N#C/C(=C\c1cccc(Cl)c1Cl)C(=O)Nc1sc2c(c1C#N)CCC2` [Compound 28a, (2E/2Z)-2-Cyano-N-{3-cyano-4H,5H,6H-cyclopenta[b]thiophen-2-yl}-3-(2,3-dichlorophenyl)prop-2-enamide] the same measures were 302 to 304 °C, 6.7 ± 0.1 µM and 67.8 µM.
Consider `N#C/C(=C\c1cccc(Cl)c1Cl)C(=O)Nc1sc2c(c1C#N)CCCC2` [Compound 28b, (2E)-2-Cyano-N-(3-cyano-4,5,6,7-tetrahydro-1-benzothiophen-2-yl)-3-(2,3-dichlorophenyl)prop-2-enamide], for which the melting point was 232 to 234 °C. Besides, on telomerase, the IC50 is 8.3 ± 0.3 µM and the IC90 came to 57.4 µM.
For `N#C/C(=C\c1ccc(N2CCCCC2)cc1)C(=O)Nc1sc2c(c1C#N)CCCC2` [Compound 29b, (2E)-2-Cyano-N-(3-cyano-4,5,6,7-tetrahydro-1-benzothiophen-2-yl)-3-[4-(piperidin-1-yl)phenyl]prop-2-enamide] the same measures were 262 to 264 °C, 4.8 ± 0.2 µM and 32.8 ± 1.5 µM.
At telomerase, `N#C/C(=C\c1ccc(N2CCOCC2)cc1)C(=O)Nc1sc2c(c1C#N)CCC2` [Compound 30a, (2E)-2-Cyano-N-{3-cyano-4H,5H,6H-cyclopenta[b]thiophen-2-yl}-3-[4-(morpholin-4-yl)phenyl]prop-2-enamide] had an IC50 of 5.2 ± 0.2 µM and a concentration for an effect of 90% (IC90) of 112 ± 3.6 µM.
In turn, `N#C/C(=C\c1ccc(N2CCOCC2)cc1)C(=O)Nc1sc2c(c1C#N)CCCC2` [Compound 30b, (2E)-2-Cyano-N-(3-cyano-4,5,6,7-tetrahydro-1-benzothiophen-2-yl)-3-[4-(morpholin-4-yl)phenyl]prop-2-enamide] displayed a melting point of 246 to 248 °C. At telomerase, the IC50 stood at 5.9 ± 0.2 µM and the IC90 was 119 ± 4.6 µM.
In the case of `CN1CCN(c2ccc(/C=C(\C#N)C(=O)Nc3sc4c(c3C#N)CCC4)cc2)CC1` [Compound 31a, (2E)-2-Cyano-N-{3-cyano-4H,5H,6H-cyclopenta[b]thiophen-2-yl}-3-[4-(4-methylpiperazin-1-yl)phenyl]prop-2-enamide], on telomerase, the midpoint of inhibition, the IC50, lay at 98.5 ± 3.8 µM and the 90% effect level (IC90) was put at 200 µM.
In the case of `CN1CCN(c2ccc(/C=C(\C#N)C(=O)Nc3sc4c(c3C#N)CCCC4)cc2)CC1` [Compound 31b, (2E)-2-Cyano-N-(3-cyano-4,5,6,7-tetrahydro-1-benzothiophen-2-yl)-3-[4-(4-methylpiperazin-1-yl)phenyl]prop-2-enamide], the melting point was 257 to 259 °C. Also, at telomerase, half-maximal inhibition (IC50) was put at 89.9 ± 3.6 µM and the IC90 was determined as 165 µM.
For `COc1cc(/C=C(\C#N)C(=O)Nc2sc3c(c2C#N)CCC3)ccc1OCc1ccccc1` [Compound 32a, (2E)-3-[4-(Benzyloxy)-3-methoxyphenyl]-2-cyano-N-{3-cyano-4H,5H,6H-cyclopenta[b]thiophen-2-yl}prop-2-enamide] the same measures were 233 to 235 °C, 6.4 ± 0.2 µM and 177 µM.
For `COc1cc(/C=C(\C#N)C(=O)Nc2sc3c(c2C#N)CCCC3)ccc1OCc1ccccc1` [Compound 32b, (2E)-3-[4-(Benzyloxy)-3-methoxyphenyl]-2-cyano-N-(3-cyano-4,5,6,7-tetrahydro-1-benzothiophen-2-yl)prop-2-enamide] the same measures were 220 to 222 °C, 110 ± 3.7 µM and 181 µM.
On telomerase, `Cc1nn(-c2ccccc2)cc1/C=C(\C#N)C(=O)Nc1sc2c(c1C#N)CCC2` [Compound 33a, (2E)-2-Cyano-N-{3-cyano-4H,5H,6H-cyclopenta[b]thiophen-2-yl}-3-(3-methyl-1-phenyl-1H-pyrazol-4-yl)prop-2-enamide] displayed an IC50 of 205 ± 4 µM and an IC90 of 643 µM.
The compound `Cc1nn(-c2ccccc2)cc1/C=C(\C#N)C(=O)Nc1sc2c(c1C#N)CCCC2` [Compound 33b, (2E)-2-Cyano-N-(3-cyano-4,5,6,7-tetrahydro-1-benzothiophen-2-yl)-3-(3-methyl-1-phenyl-1H-pyrazol-4-yl)prop-2-enamide] displayed a melting point of 256 to 258 °C. Besides, at telomerase, the IC50 was found to be 178 ± 3.3 µM and the IC90 was 574 µM.
Compound `N#C/C(=C\c1c[nH]nc1-c1ccccc1)C(=O)Nc1sc2c(c1C#N)CCC2` [Compound 34a, (2E)-2-Cyano-N-{3-cyano-4H,5H,6H-cyclopenta[b]thiophen-2-yl}-3-(3-phenyl-1H-pyrazol-4-yl)prop-2-enamide] displayed a melting point of 226 to 228 °C. At telomerase, this compound had a half-maximal inhibitory concentration (IC50) of 189 ± 6.4 µM and an IC90 of 1080 µM.
For `N#C/C(=C\c1c[nH]nc1-c1ccccc1)C(=O)Nc1sc2c(c1C#N)CCCC2` [Compound 34b, (2E)-2-Cyano-N-(3-cyano-4,5,6,7-tetrahydro-1-benzothiophen-2-yl)-3-(3-phenyl-1H-pyrazol-4-yl)prop-2-enamide] the same measures were 263 to 265 °C, 38.8 ± 1 µM and 284 ± 6.6 µM.
For `N#C/C(=C\c1cccc2ccccc12)C(=O)Nc1sc2c(c1C#N)CCC2` [Compound 35a, (2E)-2-Cyano-N-{3-cyano-4H,5H,6H-cyclopenta[b]thiophen-2-yl}-3-(naphthalen-1-yl)prop-2-enamide], on telomerase, inhibition was half-maximal at 5.1 ± 0.2 µM (IC50) and the IC90 worked out at 31.1 ± 1.1 µM.
On the same counts, the results for `N#C/C(=C\c1cccc2ccccc12)C(=O)Nc1sc2c(c1C#N)CCCC2` [Compound 35b, (2E)-2-Cyano-N-(3-cyano-4,5,6,7-tetrahydro-1-benzothiophen-2-yl)-3-(naphthalen-1-yl)prop-2-enamide] are 5.3 ± 0.2 µM and 18.6 ± 0.9 µM.
For `N#C/C(=C\c1ccc2ccccc2c1)C(=O)Nc1sc2c(c1C#N)CCC2` [Compound 36a, (2E)-2-Cyano-N-{3-cyano-4H,5H,6H-cyclopenta[b]thiophen-2-yl}-3-(naphthalen-2-yl)prop-2-enamide] the same measures were 5.2 ± 0.2 µM and 34.9 ± 1.6 µM.
`N#C/C(=C\c1cccc2c1OCO2)C(=O)Nc1sc2c(c1C#N)CCC2` [Compound 37a, (2E)-3-(2H-1,3-Benzodioxol-4-yl)-2-cyano-N-{3-cyano-4H,5H,6H-cyclopenta[b]thiophen-2-yl}prop-2-enamide] displayed a melting point of 286 to 288 °C. In addition, at telomerase, half-maximal inhibition (IC50) was put at 23.5 ± 0.9 µM and it took 137 ± 2.6 µM to reach the 90% level (IC90).
On the same counts, the results for `N#C/C(=C\c1cccc2c1OCO2)C(=O)Nc1sc2c(c1C#N)CCCC2` [Compound 37b, (2E)-3-(2H-1,3-Benzodioxol-4-yl)-2-cyano-N-(3-cyano-4,5,6,7-tetrahydro-1-benzothiophen-2-yl)prop-2-enamide] are 226 to 228 °C, 97.8 ± 2.6 µM and 174 µM.
In turn, `N#C/C(=C\c1ccc2c(c1)OCO2)C(=O)Nc1sc2c(c1C#N)CCC2` [Compound 38a, (2E)-3-(2H-1,3-Benzodioxol-5-yl)-2-cyano-N-{3-cyano-4H,5H,6H-cyclopenta[b]thiophen-2-yl}prop-2-enamide] returned a melting point of 219 to 221 °C. Moreover, at telomerase, half-maximal inhibition (IC50) was put at 25.4 ± 1 µM and the IC90 is 282 µM.
On the same counts, the results for `N#C/C(=C\c1ccc2c(c1)OCO2)C(=O)Nc1sc2c(c1C#N)CCCC2` [Compound 38b, (2E)-3-(2H-1,3-Benzodioxol-5-yl)-2-cyano-N-(3-cyano-4,5,6,7-tetrahydro-1-benzothiophen-2-yl)prop-2-enamide] are 204 to 206 °C, 40.3 ± 1.7 µM and 339 µM.
On the same counts, the results for `N#C/C(=C\c1c[nH]c2ccccc12)C(=O)Nc1sc2c(c1C#N)CCC2` [Compound 39a, (2E)-2-Cyano-N-{3-cyano-4H,5H,6H-cyclopenta[b]thiophen-2-yl}-3-(1H-indol-3-yl)prop-2-enamide] are 284 to 286 °C, 2.5 ± 0.1 µM and 9.5 ± 0.3 µM.

For the origin of these results see paper PMC9025901, “New Genetic Bomb Trigger: Design, Synthesis, Molecular Dynamics Simulation, and Biological Evaluation of Novel BIBR1532-Related Analogs Targeting Telomerase against Non-Small Cell Lung Cancer” (Pharmaceuticals, 2022).
